Values quoted from earlier work, collected in patent US8563723B2, “Arylsulfonyl pyrazoline carboxamidine derivatives as 5-HT6 antagonists” (Abbott Healthcare Products, B.V., priority 2008, dated 2013).

Conditions: Rogers, 1999; cited from earlier work

COc1ccc(NS(=O)(=O)c2sc3ccc(Cl)cc3c2C)cc1N1CCNCC1 [SB-271046]
performance in the Morris water maze: improved performance
